# Measurements from paper doi:10.1101/2025.07.20.665728 (bioRxiv, 2025).
# What was measured:
# hMR1^R9H = target: T1, hMR1^R9H (Homo sapiens, UniProt Q95460, R31H); assay: In vitro refolding of MR1 R9H mutant with ligand; assay type: binding
# T1 construct: plasmids encoding for the extracellular domains of MR1, β2m, and the AF-7 TCRα and TCRβ chains; made in house; host or cells: Escherichia coli BL21(DE3), inclusion bodies
# Description: We then tested the effect of the RF catabolites on the expression of two mutant versions of MR1 termed MR1^R9H ([Howson et al., 2020]) and MR1^K43A ([Reantragoon et al., 2013]). First, we tested the MR1^R9H mutant ([Howson et al., 2020]) which represents a rare, natural human polymorph. […] When C1R. […] Next, we tested sought to understand how the previously characterised Lys43A mutation affects ligand binding. […] While this is in line with the ability of these ligands to bind MR1, the reason for MR1^K43A cell surface accumulation is less clear. The most likely explanation is that these ligands bind ER-resident MR1^K43A, in line with our data using wild-type MR1; however, because the K43A mutation results in spontaneous MR1 surface egress, the presence of these stabilising ligands promotes enhanced trafficking and/or retention at the cell surface. We cannot rule out however that the ligands may also bind directly to surface MR1^K43A and slow down the recycling from cell surface.
# Escherichia coli BL21(DE3) cells were transformed with plasmids encoding for the extracellular domains of MR1, β2m, and the AF-7 TCRα and TCRβ chains ([Kjer-Nielsen et al., 2012]; [Patel et al., 2013]; [Wang et al., 2022a]). The proteins were then expressed, and the inclusion bodies were purified, cleaned, and used for refolding. […]
# C1R.MR1 cells = assay: Endo H treatment and western blot of intracellular MR1; assay type: cell-based; details: C1R.MR1, 16 h; RF and catabolites 100 μM, Ac-6-FP 10 μM
# Experimental: The downregulation of MR1 on the cell surface by the RF catabolites could be due to the depletion of the intracellular ER-resident MR1 pool, or by retention of MR1 in the ER, as shown for the DB28 ligand ([Salio et al., 2020]). To investigate this, C1R.MR1 cells were treated for 16 h with 100 μM of RF or RF catabolites, conditions which induce MR1 downregulation (Fig. 3A). Cells were lysed, and treated with endoglycosidase (Endo) H, to distinguish molecules that remain within the ER from those that have trafficked to the cell surface ([McWilliam et al., 2016]), then MR1 levels were assessed by immunoblotting (Fig. 3A).
# Figure 3. […] S, Endo H–susceptible MR1; R, Endo H–resistant MR1. The Endo H–susceptible MR1 and Endo H–resistant MR1 fractions were quantified in at least two independent experiments. (b) Intracellular total MR1 level was also measured in C1R.MR1 cells by flow cytometry after treating the cells with the indicated ligands (100 μM) for 16h followed by permeabilization and staining with anti-MR1-PE (8F2.F9). Shown are the overlay histograms (top) and a bar chart depicting the geometric mean fluorescence intensity (gMFI) fold change of intracellular MR1 level (bottom) from three independent experiments performed in duplicates, with standard error (SEM) represented by the error bars. […]
# THP-1.MR1 cells = assay: Competition with Ac-6-FP-induced MR1 upregulation, THP-1.MR1; assay type: cell-based; details: 1–200 μM overnight, then 10 μM Ac-6-FP 3 h
# T1 sequence (Q95460 23-302 R31H): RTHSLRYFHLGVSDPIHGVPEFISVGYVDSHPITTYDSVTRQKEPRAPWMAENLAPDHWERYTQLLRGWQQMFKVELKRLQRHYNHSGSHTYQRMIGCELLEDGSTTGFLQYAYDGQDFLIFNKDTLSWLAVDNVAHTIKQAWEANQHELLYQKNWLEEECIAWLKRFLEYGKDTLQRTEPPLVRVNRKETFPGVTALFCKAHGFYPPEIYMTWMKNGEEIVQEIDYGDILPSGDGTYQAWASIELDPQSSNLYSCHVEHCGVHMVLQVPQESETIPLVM
# T1 sequence (P61769 21-119 partner): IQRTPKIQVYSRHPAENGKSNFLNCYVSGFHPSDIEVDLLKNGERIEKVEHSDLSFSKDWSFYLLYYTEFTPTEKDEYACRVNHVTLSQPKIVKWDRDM
Structure (SMILES),refolding with hMR1^R9H in solution (hMR1^R9H),Endo H-resistant MR1 (C1R.MR1 cells),effect on Ac-6-FP-induced cell surface upregulation of MR1 (THP-1.MR1 cells)
"Cc1cc2nc3[nH]c(=O)[nH]c(=O)c3nc2cc1C [Lumichrome, 7,8-dimethylalloxazine]",did not refold,,
"Cc1cc2nc3c(=O)[nH]c(=O)nc-3n(C[C@H](O)[C@H](O)[C@H](O)CO)c2cc1C [RF, Riboflavin]",,Neither RF nor its catabolites induced any Endo H-resistant MR1,did not modulate
